Measurements: patent US5665721A, “Heterocyclic substituted cyclopentane compounds” (Abbott Laboratories, priority 1995, dated 1997)

Legend:
[1] = test system: adenosine kinase; conditions: literature; cited from earlier work
[2] = target: adenosine kinase (Homo sapiens, UniProt P55263); test: In vitro inhibition of adenosine kinase activity; type: biochemical; conditions: Table 2, in vitro
Text: The adenosine kinase to be inhibited can be located in vitro, in situ or in vivo. Where the adenosine kinase is located in vitro, adenosine kinase is contacted with the inhibitor compound, typically by adding the compound to an aqueous solution containing the enzyme, radiolabeled substrate adenosine, magnesium chloride and ATP. The enzyme can exist in intact cells or in isolated subcellular fractions containing the enzyme. The enzyme is then maintained in the presence of the inhibitor for a period of time and under suitable physiological conditions. Means for determining maintained times are well known in the art and depend inter alia on the concentrations of enzyme and the physiological conditions. Suitable physiological conditions are those necessary to maintain adenosine kinase viability and include temperature, acidity, tonicity and the like. Inhibition of adenosine kinase can be performed, by example, according to standard procedures well known in the art (Yamada et at., Comp. Biochem. Physiol. 1982, 71B: 367-372).
In vitro adenosine kinase activity can be measured using any of the standard procedures well known in the art. By way of example, cells containing adenosine kinase, such as IMR-32 human neuroblastoma cells, are cultured in the presence and absence of an inhibitor. Inhibition is measured as the ability to inhibit phosphorylation of endogenous or externally applied ^14 C-adenosine by these cells. The cells can be intact or broken. The specificity of adenosine kinase inhibitory activity is determined by studying the effects of inhibitors on adenosine A1 and A2a receptor binding, adenosine deaminase activity and adenosine transport.
Numerous inhibitor compounds of the present invention were tested in vitro and found to inhibit adenosine kinase activity. The results of some representative studies are shown below in Tables 1 and 2.

Sequence of adenosine kinase (Homo sapiens, UniProt P55263) (P55263 whole entry, species assumed): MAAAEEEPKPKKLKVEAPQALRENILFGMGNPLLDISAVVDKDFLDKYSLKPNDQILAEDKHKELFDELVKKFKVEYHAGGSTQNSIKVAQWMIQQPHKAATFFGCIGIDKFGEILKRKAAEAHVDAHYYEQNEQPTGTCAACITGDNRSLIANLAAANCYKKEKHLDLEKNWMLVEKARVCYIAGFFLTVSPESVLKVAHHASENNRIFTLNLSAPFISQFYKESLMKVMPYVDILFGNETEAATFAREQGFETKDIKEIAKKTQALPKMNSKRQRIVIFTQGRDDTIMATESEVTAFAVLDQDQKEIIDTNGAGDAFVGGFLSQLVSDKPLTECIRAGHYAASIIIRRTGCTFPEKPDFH

SMILES: NC[C@H]1O[C@@H](n2cnc3c(N)ncnc32)[C@H](O)[C@@H]1O [5'-amino,5'-deoxyadenosine]
- reported to inhibit adenosine kinase (in words) [1]: most potent

SMILES: Nc1ncnc2c1c(I)cn2[C@@H]1O[C@H](CO)[C@@H](O)[C@H]1O [5-iodotubercidin]
- reported to inhibit adenosine kinase (in words) [1]: most potent

SMILES: C[C@H]1O[C@@H](n2cc(I)c3c(N)ncnc32)[C@H](O)[C@@H]1O [5'-deoxy-5-iodotubercidin]
- reported to inhibit adenosine kinase (in words) [1]: most potent

SMILES: O=C(N[C@H]1C[C@@H](n2cc(I)c3c(Cl)ncnc32)[C@H](O)[C@@H]1O)C(F)(F)F [drawing 18 (R5=Cl, R=CF3CO), N7-((1'R,2'S,3'R,4'S)-2',3'-dihydroxy-4'-(trifluoroacetyl)amino-cyclopentyl)-4-chloro-5-iodo-pyrrolopyrimidine]
- IC50 [2]: 0.11 µM
